Test results: patent US12180306B2, “Anti-allergic peptide and use thereof for immune regulation and anti-allergy” (Greenyn Biotechnology Co., Ltd, priority 2022, dated 2024)

Tested on: mouse mast cells P815
Test: Inhibition of IL-4 and IL-13 secretion by compound 48/80-induced mouse mast cells P815
Format: cell-based
Design: key to IL-13 Concentration decrease percentage (%) / IL-4 Concentration decrease percentage (%): N represents that the results obtained have not decreased
Details: synthetic peptides; for IL-4 Concentration decrease percentage (%) / IL-13 Concentration decrease percentage (%): P815 cells, compound 48/80 10 μg/mL; for effects in inhibiting secretion of IL-4 and IL-13 by cells: comparison within Table 3; for inhibiting allergic reactions: conclusion from Table 3
Protocol: Referring to the method disclosed in Example 3, an ability of each of the above synthetic sequences in inhibiting secretion of cytokines such as IL-4 and IL-13 is tested, the results are shown in Table 3, where N represents that the results obtained have not decreased.

Row | Sequence | IL-4 Concentration decrease percentage (%) | IL-13 Concentration decrease percentage (%) | effects in inhibiting secretion of IL-4 and IL-13 by cells | inhibiting allergic reactions
1 | VGNSLAAVIIG [Peptide 6] | 0.9% | 2.7% | – | –
2 | TANAIGLAGLI [Peptide 10] | 9.3% | N | – | –
3 | NKKQAAALGI [Peptide 8] | 1.0% | 11.4% | – | –
4 | KIVNQVNHLNPT [Peptide 12] | N | 10.8% | – | –
5 | GVSGGVLAAILG [Peptide 9] | 5.8% | 2.7% | – | –
6 | PMALLAVLGL [Peptide 7] | 4.1% | 5.2% | – | –
7 | LVPWSIIGL [Peptide 14] | N | 9.8% | – | –
8 | DLDVVVALGI [Peptide 5] | 7.3% | 24.0% | better effects | capable of inhibiting allergic reactions
9 | DLQLAGLIGL [Peptide 1] | 14.5% | 24.0% | – | capable of inhibiting allergic reactions
10 | QTAQALVLIG [Peptide 13] | N | 12.1% | – | –
11 | EWLLGLLGI [Peptide 4] | 19.9% | 35.4% | – | capable of inhibiting allergic reactions
12 | PPYQGAPLM [Peptide 11] | 10.0% | N | – | –
13 | NPALQVIKV [Peptide 2] | 8.1% | 27.1% | better effects | capable of inhibiting allergic reactions
14 | GLGDAKVALGI [Peptide 3] | 5.1% | 21.7% | better effects | capable of inhibiting allergic reactions
15 | ADALQLVLAV [Peptide 15] | 2.7% | 3.8% | – | –
16 | TRQKALAALGI [Peptide 16] | N | 5.9% | – | –
